What was measured:
MPV17^−/− mice = test: qPCR measurements of mtDNA copy number in the liver of MPV17−/− mice; type: in vivo, mouse; details: treatment alone; summary statement
Experimental: • 2A. 2 litters from MPV17^−/− mouse (KO×KO) breeding pairs were used in the study. The experimental groups were set up as follows: • 1. - - - KO untreated (n=1) • 2. - - - KO treated with 109.35 mg/kg MT102C+104.2 mg/kg MT102G (n=3) • 3. - - - KO treated with 163.87 mg/kg MT103C+150.56 mg/kg MT103G (n=3) • 4. - - - KO treated with 75 mg/kg dC and 75 mg/kg dG (purchased from Sigma) (n=3) • 5. - - - KO treated with 144.9 mg/kg MT101G (n=2)
Treatment was started at day 7 and terminated at day 30. The treatment was performed by delivery into the oral cavity throughout the study. […] At day 30, animals were sacrificed and tissues collected. Liver, muscle, kidney, gut, heart and brain were flash frozen in liquid nitrogen. Blood was collected by heart puncture and plasma fractions stored at −80° C.
Results of qPCR measurements of mtDNA copy number in the liver tissue of treated and untreated mice are shown FIG. 7. • 2B. In order to compare results, WT (n=5), KO untreated (n=4) and KO treated with 20% MT101 (n=4) and 20% MT104 (n=4) from previous experiments were also included in the analysis. • 2C. Three other litters from KO x KO breeding pairs were used in a further study of nucleoside prodrug supplementation: • 1.—Litter 2 (L2): Born on Feb. 9, 2020 • 2.—Litter 3 (L3): Born on May 9, 2020 • 3.—Litter 4 (L4): Born on Aug. 9, 2020 […]
mtDNA copy number in liver was analyzed by RT-qPCR. […]

[1] = test system: fibroblasts from patients with DGUOK mutations; details: cited from earlier work
dGK mutant fish = details: nucleoside supplementation (Munro, et al. 2019); cited from earlier work

Nc1nc2c(ncn2[C@H]2C[C@H](O)[C@@H](CO)O2)c(=O)[nH]1 [dG, 2′-deoxyguanosine]
mtDNA copy numbers in dGK or MPV17 deficiency disorders (MPV17^−/− mice): sufficient to increase mtDNA copy numbers | mtDNA depletion after quiescence, previously demonstrated ([1]; 50 μM in cell culture medium): sufficient to prevent this depletion | mtDNA copy number ([1]; 50 μm added into culture broth (Camara, et al. 2014)): sufficient to increase the mtDNA copy number | mtDNA levels in dGK mutant fish (dGK mutant fish): decreased mtDNA levels
